One assay relates to PON2 (Paraoxonase 2). The experiment in a line: Relative expression level of PON2 in liver of DIO mice (Western blot, relative to actin). The following applies: 100 mg/kg orally once daily for 6 weeks, 60% fat diet. The assay is classed as in vivo, C57BL/6J DIO mice. The protocol: 14-Week-old C57BL/6J DIO (Diet Induced Obesity) mice (The Jackson Laboratory, USA) were purchased. The normal control group was fed a 10% fat diet for 3 weeks, and the DIO control group was fed a 60% fat diet for 3 weeks. In addition, the Formula III-1 compound-administered group was fed a 60% fat diet for 3 weeks, and then 100 mg/kg of the compound of Formula III-1 was orally administered thereto once daily for 6 weeks.
The mice of the normal control group, the DIO control group and the Formula III-1 compound-administered group were euthanized, and the liver tissues were extracted therefrom, washed with a PBS solution containing PIC (protease inhibitor cocktail), sectioned to a size of 0.2 to 0.5 g, and stored at −196° C. until the experiment. […]
A lysis buffer (CelLytic™ Cell Lysis Reagent, Sigma-Aldrich Corp.) containing a protease inhibitor cocktail was added to the liver tissue which was then minced using a homogenizer, incubated at 0° C. for 30 minutes, and centrifuged at 14,000 rpm for 15 minutes at 4° C. to obtain the supernatant. The protein concentration was quantified using the Bradford method, and then the same amount of protein was separated by electrophoresis on 10% SDS-PAGE and transferred to a polyvinylidene difluoride membrane (PVDF; Pall Corporation, USA) in glycine-methanol buffer. […]
(In general: Immunoblotting shows a protein as a band on a membrane.)

The test system of another assay is SH-SY5Y cells. Briefly: Reactive oxygen species generation (DCF-DA) after MPP+. The class given is cell-based, Human. Particulars: 1 mM MPP+ 24 h, then 0.0001-1 μM compound 24 h, FIG. 4. The procedure:
Human neuronal SH-SY5Y cells were cultured in a 1:1 DMEM/F12 medium containing 10% FBS (fetal bovine serum) at 37° C. under 5% carbon dioxide and 95% air. The cultured cells were transferred to a 96-well cell culture plate at a density of 2*10^4 cells/well and cultured for 24 hours. Thereafter, after replacement with serum-restricted medium (1:1 DMEM/F12 medium containing 0.5% FBS), the cells were cultured for 16 hours. Then, the cultured cells were treated with 1 mM MPP+ (1-methyl-4-phenylpyridinium) and cultured for 24 hours, thus inducing mitochondrial dysfunction in the cells. […]
Based on the principle that 2′,7′-dichlorofluorescein diacetate (DCF-DA) is oxidized to fluorescent DCF by reaction with reactive oxygen species, the level of reactive oxygen species generation was measured. […] Then, the fluorescence intensity of DCF at an excitation wavelength of 485 nm and an emission wavelength of 535 nm and the fluorescence intensity of bisbenzimide at an excitation wavelength of 335 nm and an emission wavelength of 460 nm were measured using a fluorescence analyzer to determine the level of reactive oxygen species generation. […]
The concentration of DCF determined from the fluorescence intensity was expressed as a percentage of the normal control.

The subject of assay [1] is RAW264.7 cells. The experiment in a line: NO and PGE2 production after LPS. The assay is classed as cell-based. Particulars: 3 h pretreatment (Table 3 amounts), LPS 1 μg/ml 24 h. The method in brief:
(§1)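 RAW264.7 or BV2 cells (5×10^5 cells/well) in DMEM with 10% FBS were pretreated with compound, then stimulated with 1 μg/ml LPS for 24 h. iNOS and COX-2 expression by Western blot; NO and PGE2 production measured. Compound toxicity checked by MTT.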

The subject of assay [2] is BV2 cells. Briefly: NO and PGE2 production after LPS. The class given is cell-based. Particulars: 3 h pretreatment (Table 3 amounts), LPS 1 μg/ml 24 h. The method in brief:
as §1

For assay [3], the system named is RAW264.7 cells. Briefly: iNOS and COX-2 expression after LPS (Western blot). The assay is classed as cell-based. Particulars: 3 h pretreatment (Table 3 amounts), LPS 1 μg/ml 24 h. The method in brief: as §1
In assay [4] the test system is BV2 cells. The experiment in a line: iNOS and COX-2 expression after LPS (Western blot). The class given is cell-based. Particulars: 3 h pretreatment (Table 3 amounts), LPS 1 μg/ml 24 h. The method in brief: as §1

In the case of `CCOc1ccc(C2COc3c(ccc4c3CCC(C)(C)O4)C2)c(O)c1` (centres unmarked) [Formula III-1, 2-(8,8-dimethyl-2,3,4,8,9,10-hexahydropyrano[2,3-f]chromen-3-yl)-5-ethoxyphenol], the “expression level of PON2 compared with DIO control group” value in the assay on PON2 (Paraoxonase 2) (FIG. 1) is given as “higher”. In the assay with PON2 (Paraoxonase 2) (FIG. 1b), the “expression level of PON2 compared with normal control group” value was “higher”. Besides, in the assay on SH-SY5Y cells, the “level of intracellular reactive oxygen species generation (DCF)” value is “decreased”. Moreover, the “production of NO” value in the assay on RAW264.7 cells [1] and in the assay on BV2 cells [2] was “concentration-dependently decreased” each time. In addition, the “production of PGE2” value in the assay on RAW264.7 cells [1] and in the assay on BV2 cells [2] was “concentration-dependently decreased” each time. Besides, the “expression level of COX-2” value with RAW264.7 cells [3] and in the assay on BV2 cells [4] was “concentration-dependently decreased” throughout. Further, the “expression level of iNOS” value with RAW264.7 cells [3] and in the assay with BV2 cells [4] was “concentration-dependently decreased” throughout.

Values taken from US20220257557A1, “PHARMACEUTICAL COMPOSITION FOR PREVENTING OR TREATING NEUROLOGICAL DISEASES” (GLACEUM INC., priority 2019, published 2022).
